{
  "source": "ChEMBL document CHEMBL5113463",
  "about": "“Discovery and preclinical evaluations of JBD0131, a novel nitrodihydro-imidazooxazole anti-tuberculosis agent” (Bioorg Med Chem Lett, 2022)",
  "key": {"[1]": {"test": "Oral bioavailability in Sprague-Dawley rat at 4 mg/kg", "assay_type": "ADME, organism-based", "settings": "in vivo; call rule not given here"}, "[2]": {"tested_on": "Mycobacterium tuberculosis", "test": "In vivo antimycobacterial activity against Mycobacterium tuberculosis Erdman infected mouse acute tuberculosis infection model assessed as reduction in log10 CFU at 10 mg/kg for 3 weeks at 5 days/week relative to control", "assay_type": "functional"}, "Cytochrome P450 2B6": {"molecular_target": "T1, Cytochrome P450 2B6 (Homo sapiens, UniProt P20813)", "T1 sequence (P20813 whole entry)": "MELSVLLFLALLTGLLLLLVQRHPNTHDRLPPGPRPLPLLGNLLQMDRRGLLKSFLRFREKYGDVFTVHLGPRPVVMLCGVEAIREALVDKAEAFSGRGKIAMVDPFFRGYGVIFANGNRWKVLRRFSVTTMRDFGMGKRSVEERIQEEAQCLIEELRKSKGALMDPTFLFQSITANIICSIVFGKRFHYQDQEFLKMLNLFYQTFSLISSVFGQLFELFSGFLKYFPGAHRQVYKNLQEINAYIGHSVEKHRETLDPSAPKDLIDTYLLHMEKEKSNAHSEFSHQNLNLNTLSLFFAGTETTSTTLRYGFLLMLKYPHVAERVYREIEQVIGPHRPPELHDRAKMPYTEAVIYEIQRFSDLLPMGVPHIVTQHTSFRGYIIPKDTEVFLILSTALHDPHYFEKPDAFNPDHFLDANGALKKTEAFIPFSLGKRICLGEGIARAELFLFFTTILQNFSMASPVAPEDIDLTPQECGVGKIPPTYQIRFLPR", "test": "Inhibition of CYP2B6 (unknown origin)", "assay_type": "ADME"}, "[3]": {"test": "Half life in Sprague-Dawley rat at 1 mg/kg, iv", "assay_type": "ADME, organism-based", "settings": "in vivo"}, "[4]": {"test": "Clearance in Beagle dog at 0.5 mg/kg, iv", "assay_type": "ADME, organism-based, Canis lupus familiaris", "settings": "in vivo"}, "[5]": {"test": "Oral bioavailability in CD-1 mouse at 5 mg/kg", "assay_type": "ADME, organism-based", "settings": "mouse, in vivo, po, 5 mg/kg"}, "[6]": {"test": "Plasma protein binding in rat assessed as bound fraction", "assay_type": "ADME, cell-free", "settings": "read-out: PPB (converted)"}, "[7]": {"test": "Plasma protein binding in mouse assessed as bound fraction", "assay_type": "ADME, cell-free", "settings": "read-out: PPB (converted)"}, "[8]": {"test": "Metabolic stability in dog liver microsomes assessed as half life", "assay_type": "ADME, Canis lupus familiaris, Microsome"}, "[9]": {"test": "AUC (0-last) in CD-1 mouse at 5 mg/kg, po", "assay_type": "ADME, organism-based", "parameters": "dose 5 mg/kg, route po", "settings": "mouse, in vivo"}, "[10]": {"tested_on": "Mycobacterium tuberculosis", "test": "Antimycobacterial activity against clinical isolate drug susceptible Mycobacterium tuberculosis H37Rv assessed as bacterial growth inhibition", "assay_type": "functional"}, "[11]": {"test": "Drug distribution in Sprague-Dawley rat kidney at 10 mg/kg, po administered as C14-lableled compound and assessed as radioactivity", "assay_type": "ADME, organism-based", "settings": "in vivo"}, "[12]": {"tested_on": "Mycobacterium tuberculosis", "test": "In vivo antimycobacterial activity against Mycobacterium tuberculosis Erdman infected mouse acute tuberculosis infection model assessed as reduction lung bacterial loads by measuring CFU at 10 to 100 mg/kg for 3 weeks at 5 days/week", "assay_type": "functional, organism-based", "settings": "dose 10-100 mg/kg, DDE = dose-dependent effect"}, "[13]": {"test": "Aqueous solubility of compound at pH 2.0", "assay_type": "physicochemical", "settings": "buffer"}, "[14]": {"test": "Half life in Beagle dog at 0.5 mg/kg, iv", "assay_type": "ADME, organism-based, Canis lupus familiaris", "settings": "in vivo"}, "[15]": {"test": "Cmax in CD-1 mouse at 5 mg/kg, po", "assay_type": "ADME, organism-based", "parameters": "dose 5 mg/kg, route po", "settings": "in vivo"}, "[16]": {"test": "Plasma protein binding in human assessed as bound fraction", "assay_type": "ADME, cell-free", "settings": "read-out: PPB (converted)"}, "Cytochrome P450 2C8": {"molecular_target": "T2, Cytochrome P450 2C8 (Homo sapiens, UniProt P10632)", "T2 sequence (P10632 whole entry)": "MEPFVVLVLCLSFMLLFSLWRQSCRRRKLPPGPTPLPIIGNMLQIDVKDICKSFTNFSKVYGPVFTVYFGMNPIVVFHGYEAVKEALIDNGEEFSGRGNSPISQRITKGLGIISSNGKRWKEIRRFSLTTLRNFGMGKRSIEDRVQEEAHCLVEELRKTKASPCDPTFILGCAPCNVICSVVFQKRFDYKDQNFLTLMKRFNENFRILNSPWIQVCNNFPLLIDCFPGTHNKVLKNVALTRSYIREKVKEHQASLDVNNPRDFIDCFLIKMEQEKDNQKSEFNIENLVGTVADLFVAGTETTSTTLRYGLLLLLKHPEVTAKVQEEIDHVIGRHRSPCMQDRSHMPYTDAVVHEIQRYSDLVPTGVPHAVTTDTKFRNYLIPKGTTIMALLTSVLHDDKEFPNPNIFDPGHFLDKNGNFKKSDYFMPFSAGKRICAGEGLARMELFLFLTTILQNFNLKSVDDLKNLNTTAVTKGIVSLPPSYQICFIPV", "test": "Inhibition of CYP2C8 (unknown origin)", "assay_type": "ADME"}, "[17]": {"test": "Metabolic stability in rat liver microsomes assessed as half life", "assay_type": "ADME, Microsome"}, "[18]": {"test": "AUC (0-last) in Sprague-Dawley rat at 4 mg/kg, po", "assay_type": "ADME, organism-based", "settings": "in vivo"}, "[19]": {"test": "Cytotoxicity against African green monkey vero cells assessed as reduction in cell viability", "assay_type": "toxicity, cell-based", "settings": "chlorocebus sabaeus"}, "[20]": {"test": "Drug distribution in Sprague-Dawley rat intestinal wall at 10 mg/kg, po administered as C14-lableled compound and assessed as radioactivity", "assay_type": "ADME, organism-based, Intestine", "settings": "in vivo"}, "[21]": {"test": "Volume of distribution in Sprague-Dawley rat at 1 mg/kg, iv", "assay_type": "ADME, organism-based", "settings": "in vivo"}, "[22]": {"test": "Metabolic stability in human liver microsomes assessed as half life", "assay_type": "ADME, Microsome"}, "Cytochrome P450 2C9": {"molecular_target": "Cytochrome P450 2C9 (Homo sapiens, UniProt P11712)", "sequence (P11712 whole entry)": "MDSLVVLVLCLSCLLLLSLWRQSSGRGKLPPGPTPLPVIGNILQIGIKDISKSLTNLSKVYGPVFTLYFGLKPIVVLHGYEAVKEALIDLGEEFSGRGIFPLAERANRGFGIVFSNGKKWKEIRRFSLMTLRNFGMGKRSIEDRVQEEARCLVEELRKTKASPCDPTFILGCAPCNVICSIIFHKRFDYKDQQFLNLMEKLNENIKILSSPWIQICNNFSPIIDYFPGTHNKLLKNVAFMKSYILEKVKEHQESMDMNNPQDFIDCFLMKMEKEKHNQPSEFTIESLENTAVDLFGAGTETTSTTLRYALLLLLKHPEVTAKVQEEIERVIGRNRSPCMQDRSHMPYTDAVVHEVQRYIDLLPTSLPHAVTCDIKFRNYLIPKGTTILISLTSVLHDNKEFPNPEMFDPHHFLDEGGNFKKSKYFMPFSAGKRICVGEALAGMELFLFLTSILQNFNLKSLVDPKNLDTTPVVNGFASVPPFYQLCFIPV", "test": "Inhibition of CYP2C9 (unknown origin)", "assay_type": "ADME"}},
  "data": [
    {"smiles": "C[C@]1(CN2Cc3nc(-c4ccc(F)cc4)sc3C2)CN=C(N)O1", "values": [
      {"measurement": "bioavailability", "setting": "[1]", "result": 66.9, "unit": "%"},
      {"measurement": "Activity", "setting": "[2]", "result": 4, "unit": "log10CFU"},
      {"measurement": "IC50", "setting": "Cytochrome P450 2B6", "result": "> 100", "unit": "µM"},
      {"measurement": "half-life", "setting": "[3]", "result": 2.79, "unit": "h"},
      {"measurement": "clearance", "setting": "[4]", "result": 12, "unit": "mL/min/kg"},
      {"measurement": "F", "setting": "[5]", "result": 31.2, "unit": "%"},
      {"measurement": "fraction unbound", "setting": "[6]", "result": 0.055},
      {"measurement": "fraction unbound", "setting": "[7]", "result": 0.018},
      {"measurement": "half-life", "setting": "[8]", "result": 2.52, "unit": "h"},
      {"measurement": "AUClast", "setting": "[9]", "result": 7247, "unit": "ng·h/mL"},
      {"measurement": "MIC50", "setting": "[10]", "result": 0.012, "unit": "µg/mL"},
      {"measurement": "MIC90", "setting": "[10]", "result": 0.03, "unit": "µg/mL"},
      {"measurement": "Drug uptake", "setting": "[11]", "result": "Active"},
      {"measurement": "Activity", "setting": "[12]", "result": "Dde"},
      {"measurement": "solubility", "setting": "[13]", "result": 32.2, "unit": "µM"},
      {"measurement": "half-life", "setting": "[14]", "result": 6.03, "unit": "h"},
      {"measurement": "Cmax", "setting": "[15]", "result": 753, "unit": "ng/mL"},
      {"measurement": "fraction unbound", "setting": "[16]", "result": 0.018},
      {"measurement": "IC50", "setting": "Cytochrome P450 2C8", "result": "> 100", "unit": "µM"},
      {"measurement": "half-life", "setting": "[17]", "result": 1.13, "unit": "h"},
      {"measurement": "AUClast", "setting": "[18]", "result": 4520, "unit": "ng·h"},
      {"measurement": "CC50", "setting": "[19]", "result": "> 32", "unit": "µg/mL"},
      {"measurement": "Drug uptake", "setting": "[20]", "result": "Active"},
      {"measurement": "Vd", "setting": "[21]", "result": 5.56, "unit": "L/kg"},
      {"measurement": "half-life", "setting": "[22]", "result": 1.78, "unit": "h"},
      {"measurement": "IC50", "setting": "Cytochrome P450 2C9", "result": "> 100", "unit": "µM"}
    ]}
  ]
}
